Tested on: not given
Details: not given

| SMILES | melting point |
| --- | --- |
| Clc1ccc2c(c1)N(c1ncnc3cnccc13)CC2 | 194 to 196 °C |
| Cl.Clc1ccc2c(c1)N(c1ncnc3[nH]ccc13)CC2 | 266 °C (dec.) |
| c1ccc(Nc2ncnc3ncccc23)cc1 | 258 °C |
| c1ccc(Nc2ncnc3cnccc23)cc1 | 161 °C |
| Oc1cc2ncnc(N3CCc4ccc(Cl)cc43)c2[nH]1 | 250 °C (dec.) |
| Cl.c1nc(Nc2ccc3[nH]ccc3c2)c2cc[nH]c2n1 | 218 to 221 °C |
| C#Cc1cccc(Nc2ncnc3c2ccn3CCOCCOC)c1 | 240 to 241 °C |
| Cc1cc2c(N3CCc4c(Br)ccc(C)c43)ncnc2cn1.Cl | 232 to 244 °C |
| Cc1cc2c(N3CCc4ccc(Br)c(C)c43)ncnc2cn1.Cl | 212 to 229 °C |
| Cc1cc2c(N3CCc4cc(F)c(Br)cc43)ncnc2cn1.Cl | 262 to 264 °C |
| Cl.c1cc2c(Nc3ccc4sccc4c3)ncnc2cn1 | 280 to 282 °C |

Now from value to compound:

| melting point | SMILES |
| --- | --- |
| 240 to 241 °C | C#Cc1cccc(Nc2ncnc3cc(C)ncc23)c1.Cl |
| 172 °C | Cc1cccc(Nc2ncnc3cnccc23)c1 |
| 225 °C | C#Cc1cc(Nc2ncnc3cnc(C)cc23)ccc1F |
| 298 to 305 °C | Cc1cc2c(Nc3ccc(O)c(C)c3)ncnc2cn1.Cl.Cl |
| 251 to 258 °C | Cc1cc2c(Nc3ccc(F)c(Cl)c3)ncnc2cn1.Cl |
| 269 to 270 °C | Cc1cc2c(Nc3cccc(C(F)(F)F)c3)ncnc2cn1.Cl |
| 246 to 250 °C | Cc1cc2c(Nc3ccc(F)c(C)c3)ncnc2cn1.Cl |
| 261 to 265 °C | Cc1cc2c(Nc3ccc(O)c(I)c3)ncnc2cn1.Cl |
| 251 to 254 °C | Cc1cc2c(Nc3ccc(Br)c(F)c3)ncnc2cn1.Cl |
| 250 to 252 °C | C#Cc1cccc(Nc2ncnc3cnc(C)cc23)c1.Cl |
| 232 to 234 °C | Cc1cc2c(N3CCc4ccc(Cl)cc43)ncnc2cn1 |
| 262 to 263 °C | CS(=O)(=O)O.Cc1cc2c(Nc3ccc4[nH]ccc4c3)ncnc2cn1 |

Tested on: transplanted human mammary carcinoma which expresses epidermal growth factor receptor tyrosine kinase (EGFR)
Details: athymic nude mice; cited from earlier work

| SMILES | growth of transplanted human mammary carcinoma expressing EGFR |
| --- | --- |
| O=CN/C=C/c1cc(O)ccc1O [erbstatin] | selectively attenuates the growth |

Tested on: another carcinoma which does not express the EGF receptor
Details: athymic nude mice; cited from earlier work

| SMILES | growth of carcinoma not expressing the EGF receptor |
| --- | --- |
| O=CN/C=C/c1cc(O)ccc1O [erbstatin] | without effect on the growth |
